In general, IC50 refers to the concentration that inhibits the measured activity by half.

For the test, the target named is Histone deacetylase 4 (Homo sapiens, UniProt P56524). Put plainly: Inhibition Assay: Human recombinant HDAC4 was expressed in full length form (aa 2-1084) in Sf9 insect cells (obtained from ATCC) using baculovirus generated with Bac-to-Bac system (Invitrogen). Test compounds were serially diluted to reach final test concentrations from 0.003 uM to 100 uM. HDAC4 and test compounds were incubated in 25 mM Tris buffer pH 8.0 containing 137 mM NaCl, 2.7 mM KCl, 1 mM MgCl2 and 0.05% (w/v) bovine serum albumine for 2 hours at room temperature in presence of 10 uM of acetyl-Gly-Ala-Lys(E-trifluoroacetyl)-AMC (AMC=7-amino-4-methyl coumarin) in a final volume of 200 ul. Control wells with HDAC4 only (positive control) and without HDAC4 (negative control) were included on the microplate. Bovine trypsin (10 ul of a 0.4 mg/ml solution) was added and the plate incubated for additional 15 minutes at room temperature. The plate was placed in a fluorescence microplate reader, and read at an excitation wavelength of 360 nm and an emission wavelength of 450 nm.
Histone deacetylase 4, sequence (P56524 whole entry, the tested form may be a part): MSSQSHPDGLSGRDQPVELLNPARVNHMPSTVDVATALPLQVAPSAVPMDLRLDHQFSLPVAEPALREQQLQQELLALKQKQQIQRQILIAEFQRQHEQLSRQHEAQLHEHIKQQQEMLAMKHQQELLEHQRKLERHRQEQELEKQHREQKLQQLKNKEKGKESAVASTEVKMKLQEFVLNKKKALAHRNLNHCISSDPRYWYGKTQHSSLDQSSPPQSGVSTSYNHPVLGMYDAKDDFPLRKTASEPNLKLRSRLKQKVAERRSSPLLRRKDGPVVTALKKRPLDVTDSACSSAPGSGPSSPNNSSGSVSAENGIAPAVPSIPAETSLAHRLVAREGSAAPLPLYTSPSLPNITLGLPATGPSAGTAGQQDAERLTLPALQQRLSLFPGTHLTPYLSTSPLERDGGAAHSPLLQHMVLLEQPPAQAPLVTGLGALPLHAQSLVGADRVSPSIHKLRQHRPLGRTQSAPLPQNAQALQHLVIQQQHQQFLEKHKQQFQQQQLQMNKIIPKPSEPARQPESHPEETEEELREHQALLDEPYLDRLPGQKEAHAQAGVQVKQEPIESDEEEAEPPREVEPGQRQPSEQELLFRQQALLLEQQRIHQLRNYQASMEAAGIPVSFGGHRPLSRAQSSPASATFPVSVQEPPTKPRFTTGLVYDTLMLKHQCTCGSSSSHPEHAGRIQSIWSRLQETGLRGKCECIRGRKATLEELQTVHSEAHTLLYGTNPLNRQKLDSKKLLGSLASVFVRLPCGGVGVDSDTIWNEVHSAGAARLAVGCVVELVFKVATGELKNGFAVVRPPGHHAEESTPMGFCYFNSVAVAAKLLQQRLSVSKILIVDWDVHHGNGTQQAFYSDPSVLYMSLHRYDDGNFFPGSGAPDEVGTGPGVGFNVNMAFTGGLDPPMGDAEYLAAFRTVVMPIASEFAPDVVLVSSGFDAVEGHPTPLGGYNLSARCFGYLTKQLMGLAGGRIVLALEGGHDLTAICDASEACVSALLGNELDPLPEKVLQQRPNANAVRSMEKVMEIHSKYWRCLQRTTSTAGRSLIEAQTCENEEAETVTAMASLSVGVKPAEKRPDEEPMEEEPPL

As to `CCN(C)C[C@@H](C)NC(=O)c1ccc(-c2noc(C(F)(F)F)n2)cc1F`, the IC50 is 72 nM.

The values above are taken from ChEMBL document CHEMBL3638656, “Trifluoromethyl-oxadiazole derivatives and their use in the treatment of disease” (2015).
